This is an account of results in patent US20240026301A1, “METHODS AND COMPOSITIONS FOR GENERATING ENDOTHELIAL CELLS FROM PLURIPOTENT STEM CELLS” (Trailhead Biosystems Inc., priority 2022, published 2024).

In assay [1] the test system is CD31. The experiment in a line: Factor criticality analysis (dynamic profile analysis), CD31 expression level. Type of assay: cell-based, human. Set-up: values of CD31, effector removed / CD31 levels, effector removed / CD31 levels before addition of the SHH agonist / CD31 levels after addition of the SHH agonist: unit not given here. As to conditions: for values of CD31, effector present / values of CD31, effector removed: FIG. 6 model; for values of CD31, effector present: all factors present.

Assay [2] deals with PECAM1 (CD31). The experiment in a line: 8-factor HD-DoE experiments (qPCR, partial least squares models) optimized for maximum expression of PECAM1 (CD31), stage 2 differentiation. Type of assay: cell-based, human. As for the experimental part:
First, undifferentiated iPSC were grown for 48 h in CDM2 media containing 6 uM CHIR99021 (referred to herein as stage 1). Then stage 2 media was engineered. The basis of this was an 8-factor HD-DoE experiment with focus on differentiation of cells toward the endothelial lineage for an additional 3 days after termination of stage 1 treatment. To test the effectors, 48 different combinations of effectors generated using Design-of-Experiments compression through D-optimality were robotically prepared. The effector combinations were prepared in a basal media and were subsequently added to the cells, which were then allowed to differentiate. Three days later, RNA extraction was performed, and gene expression was obtained using quantitative PCR analysis. The data were normalized and modeled using partial least squares regression analysis to the effector design, resulting in the generation of gene-specific models, which after model tuning for maximal Q2 predictive power, provided explanation of the effectors ability to control the expression of individual genes, combinatorically, and individually. Solutions within the tested space could then be explored to address desirability. Optimizing for maximal expression of CD31 led to a robust solution. […] On this model, we observed high levels of KDR, important receptor for VEGF signaling.
This model was derived from initial testing of eight factors including: VEGF, FGF2, TTNBP, AGN194310, Y27632, Thymosin B4 and Heparin.
Next, we evaluated further factors to possibly increase the complexity of the signaling inputs to attain effective fate control. As previously, we focused on expression of CD31. Optimizing for maximal expression of the CD31 led to a robust solution. […] This model was derived from initial testing of eight factors including: YHHU-3792, DBZ, Pumorphamine, SANT1, LPA, YODA1, VEGF and B27. […] DBZ and LPA had low contributions factors and therefore were not used in the recipe.
To further improve the recipe for endothelial cell differentiation, we performed additional HD-DoE experiments. This model was derived from initial testing of eight factors including: VEGF, FGF2, Sphingosine 1 phosphate, VH298, Pyrintegrin, Erythropoetin, L-ascorbic acid and XAV939. […] On this model, we observed high levels of KDR, important receptor for VEGF signaling. […] Considering all the models analyzed, based on predicted conditions that maximize expression of endothelial enriched genes such as ERG, CDH5, CD31, FLI1, CD34, a complex recipe for endothelial differentiation was developed that is composed of 6 effectors, as shown below in Table 2: […]
A general note: Real-time PCR tracks product formation cycle by cycle.

Assay [3] deals with PECAM1, CD34, CDH5 and FLI1. The assay is described as follows: Dynamic profile analysis of expression levels relative to effector concentration (figure legends). Type of assay: cell-based, human. As to conditions: for impact on expression of PECAM1, CD34, CDH5 and FLI1: FIG. 5A-5B, slope of plots relative to effector concentration. An excerpt:
FIG. 5A-5B show the dynamic profile analysis of expression levels of PECAM1, CD34, CDH5 and FLI1 relative to the concentration of 3 validated effectors.
FIG. 6A-6B show the dynamic profile analysis of expression levels of PECAM1, CD34, CDH5 and Fli1 relative to the concentration of 3 validated effectors.
(§1) To assess the impact of elimination of each validated factor on genes associated with the endothelial lineage, dynamic profile analysis was used and the expression levels of genes of interest were compared in the absence of each finalized factor while others are kept present.

Assay [4] relates to CD34. The experiment in a line: Factor criticality analysis (dynamic profile analysis), CD34 expression level. In kind it is cell-based, human. Particulars: for CD34 levels, effector removed / values of CD34, effector removed: named effector removed; for values of CD34, effector present / values of CD34, effector removed: FIG. 5 model; for values of CD34, effector present: all finalized factors present; for values of CD34, effector removed: other factors kept. The procedure: (§2) First, undifferentiated iPSC were grown for 48 h in CDM2 media containing 6 uM CHIR99021 (referred to herein as stage 1). Then stage 2 media was engineered. The basis of this was an 8-factor HD-DoE experiment with focus on differentiation of cells toward the endothelial lineage for an additional 3 days after termination of stage 1 treatment. To test the effectors, 48 different combinations of effectors generated using Design-of-Experiments compression through D-optimality were robotically prepared. The effector combinations were prepared in a basal media and were subsequently added to the cells, which were then allowed to differentiate. Three days later, RNA extraction was performed, and gene expression was obtained using quantitative PCR analysis. The data were normalized and modeled using partial least squares regression analysis to the effector design, resulting in the generation of gene-specific models, which after model tuning for maximal Q2 predictive power, provided explanation of the effectors ability to control the expression of individual genes, combinatorically, and individually. Solutions within the tested space could then be explored to address desirability.
as §1
(§3) In this analysis, removal of a finalized effector while keeping other factors was used to analyze the impact of factors on the expression levels of CD31, CD34, FLi1 and CDH5 (FIG. 5A).

Assay [5] relates to CDH5. The assay is described as follows: Factor criticality analysis (dynamic profile analysis), CDH5 expression level. In kind it is cell-based, human.
The subject of assay [6] is FLI1. The assay is described as follows: Factor criticality analysis (dynamic profile analysis), FLI1 expression level. As to conditions: for values of Fli1, effector present / values of Fli1, effector removed: FIG. 6 model; for values of Fli1, effector present: all factors present; for values of FLI1, effector present: all finalized factors present. In kind it is cell-based, human. The procedure:
as §2, §1, §3

The test system of assay [7] is pluripotent stem cells. As to conditions: DMEM base media with ascorbic acid; GSK-inhibitor treatment; cited from earlier work.
Assay [8] relates to CD31. The experiment in a line: Factor criticality analysis (dynamic profile analysis), CD31 expression level. Type of assay: cell-based, human. As to conditions: FIG. 5 model; for values of CD31, effector present: all finalized factors present; for values of CD31, effector removed: named effector removed, other factors kept. Set-up: values of CD31, effector removed: unit not given here. As for the experimental part: as §2, §1, §3

Assay [9] has as its system CDH5. The experiment in a line: Factor criticality analysis (dynamic profile analysis), CDH5 expression level. Particulars: FIG. 5 model; for values of CDH5, effector present: all finalized factors present; for values of CDH5, effector removed: named effector removed, other factors kept. Type of assay: cell-based, human. As for the experimental part: as §2, §1, §3
Setting [10] is: model of FIG. 2, factors VEGF, FGF2, TTNBP, AGN194310, Y27632, Thymosin B4, Heparin, 3 days after stage 1.
[11] abbreviates: model of FIG. 4, factors VEGF, FGF2, Sphingosine 1 phosphate, VH298, Pyrintegrin, Erythropoetin, L-ascorbic acid, XAV939.
Setting [12] is: FIG. 6 model, all factors present.
Setting [13] is: model of FIG. 3, factors YHHU-3792, DBZ, Pumorphamine, SANT1, LPA, YODA1, VEGF, B27.
Setting [14] is: FIG. 7 model, L-ascorbic acid kept in the model.
Setting [15] is: FIG. 7 model, named effector removed, L-ascorbic acid kept.

Entries after “also recorded” stand apart in the source; their conditions may differ.

For `c1ccc2c(Oc3nc(Nc4ccc(N5CCOCC5)cc4)c4ncn(C5CCCCC5)c4n3)cccc2c1` [Pumorphamine], the “CD31 levels after addition of the SHH agonist” value in assay [1] (FIG. 7 model, agent added) is listed as 400. Further, the “CD31 levels before addition of the SHH agonist” value in assay [1] (FIG. 7 model, without the added agent) is 800.
“FGF2: FGFR agonist, e.g. recombinant human FGF2”: the “factor contribution (positive impact on expression of genes of interest)” value (from here on “factor contribution”) is recorded as “did not significantly impact the expression of CD31” in assay [2] (setting [10]) and 16 in [2] (setting [11]). In assay [3] (FIG. 6A-6B model), the “impact on PECAM1, FLI1, and CDH5 expression” value is on record as “positive impact”. Besides, the “CD34 levels, effector removed” value in assay [4] (FIG. 6 model) was “did not change significantly”. Further, the “values of CD31, effector present” value in [1] worked out at 6500. Moreover, in [1] (named effector removed), the “values of CD31, effector removed” value was 1990. The “values of CDH5, effector present” value in assay [5] (setting [12]) was 19000. Besides, the “values of CDH5, effector removed” value in [5] (FIG. 6 model, named effector removed) is listed as 5000. For the same compound, the “values of Fli1, effector present” value in assay [6] is recorded as 1300. Further, the “values of Fli1, effector removed” value in assay [6] (named effector removed) is 500.
For `Cc1c[nH]c(-c2cnc(NCCNc3ccc(C#N)cn3)nc2-c2ccc(Cl)cc2Cl)n1` [CHIR99012], in [7], the “yield of CD34+CD31+ cells prior to sorting” value is given as 20-30%.
As to `Cc1nn(-c2ccccc2)c(C)c1/C=N/N1CCN(Cc2ccccc2)CC1` [SANT1], the “factor contribution” value in assay [2] (setting [13]) is reported as 16. In addition, the “impact on PECAM1 and CDH5 expression” value in [3] (FIG. 7A-7B model) is “positive impact”. The “CD31 levels, effector present” value in assay [1] (setting [14]) was 808. For the same compound, the “CD31 levels, effector removed” value in [1] (setting [15]) came to 563. For the same compound, in [5] (setting [14]), the “CDH5 levels, effector present” value was determined as 2928. Further, the “CDH5 levels, effector removed” value in [5] (setting [15]) was determined as 2340.
For VEGF, in assay [8], the “values of CD31, effector present” value came to 2000 and the “values of CD31, effector removed” value is 340. Moreover, the “factor contribution” value in assay [2] (setting [10]) amounted to 39. Also, the “factor contribution” value in [2] (setting [13]) worked out at 32. Also, the “factor contribution” value in assay [2] (setting [11]) came to 42. For the same compound, in assay [3], the “impact on expression of PECAM1, CD34, CDH5 and FLI1” value (from here on “impact on expression of PECAM1”) is given as “positive impact”. The “impact on expression of all genes (PECAM1, CD34, CDH5 and Fli1)” value in [3] (FIG. 6A-6B model) is recorded as “positive impact; also recorded: critical”. In assay [3] (FIG. 7A-7B model), the “impact on expression of all genes (PECAM1, CD34, CDH5 and Fli1)” value is given as “positive impact”. In addition, in assay [4], the “values of CD34, effector present” value is reported as 6500 and the “values of CD34, effector removed” value worked out at 1000. For the same compound, the “values of FLI1, effector present” value in [6] (FIG. 5 model) was determined as 4900. The “values of FLI1, effector removed” value in assay [6] (FIG. 5 model, named effector removed, other factors kept) was 1035. Also, in assay [9], the “values of CDH5, effector present” value worked out at 10000 and the “values of CDH5, effector removed” value is 0.
`Oc1nc(-c2ccc(C(F)(F)F)cc2)nc2c1CSCC2` [XAV939]: the “factor contribution” value in [2] (setting [11]) was found to be 15. Moreover, in assay [3] (FIG. 6A-6B model), the “impact on PECAM1 and Fli1 expression” value is “positive impact”. The “CD34 levels, effector present” value in assay [4] (setting [12]) was found to be 7180. In addition, in assay [4] (FIG. 6 model), the “CD34 levels, effector removed” value is given as 5836. For the same compound, the “values of CD31, effector present” value in [1] turned out to be 6500. The “values of CD31, effector removed” value in assay [1] (named effector removed) is recorded as 2225. Besides, the “values of Fli1, effector present” value in assay [6] is reported as 13400. In addition, the “values of Fli1, effector removed” value in [6] (named effector removed) came to 7300.
As for `C/C(=C\c1ccc(C(=O)O)cc1)c1ccc2c(c1)C(C)(C)CCC2(C)C` [TTNBP], in assay [8], the “values of CD31, effector present” value was 2000 and the “values of CD31, effector removed” value was found to be 1077. Besides, the “factor contribution” value in assay [2] (setting [10]) was found to be 21. In addition, in assay [3], the “impact on expression of PECAM1” value is “positive impact”. For the same compound, in assay [4], the “values of CD34, effector present” value is recorded as 6500 and the “values of CD34, effector removed” value came out at 4300. In addition, the “values of FLI1, effector present” value in [6] (FIG. 5 model) is recorded as 2883. Moreover, in assay [9], the “values of CDH5, effector present” value came out at 10000 and the “values of CDH5, effector removed” value was found to be 2600.
On to `C[C@H](NC(=O)Cc1cc(F)cc(F)c1)C(=O)N[C@@H]1C(=O)N(C)c2ccccc2-c2ccccc21` [DBZ], for which the “factor contribution” value in assay [2] (setting [13]) was “low”.
Turning to heparin, in assay [8], the “values of CD31, effector present” value amounted to 2000 and the “values of CD31, effector removed” value was 1500. Further, the “factor contribution” value in [2] (setting [10]) amounted to 11. In addition, the “impact on expression of PECAM1” value in [3] is “positive impact”. In assay [4], the “values of CD34, effector present” value is on record as 6500 and the “values of CD34, effector removed” value is 4800. For the same compound, the “values of FLI1, effector present” value in [6] (FIG. 5 model) came out at 2883. Moreover, in assay [9], the “values of CDH5, effector present” value stood at 10000 and the “values of CDH5, effector removed” value was 5800.
